Data reported in patent US7763728B2, “Tetrahydropyridothiophenes” (4SC AG, priority 2005, dated 2010).

Tests used:
[1] = test system: RKO (RKOp27) human colon adenocarcinoma cells; assay: Alamar Blue cell viability assay, anti-proliferative/cytotoxic activity on proliferating (uninduced) RKOp27 cells; format: cell-based; conditions: 72 hours incubation, absence of the inducer Ponasterone A, read-out: IC50 RKO p27 uninduced (proliferating)
Description: The anti-proliferative/cytotoxic activity of the compounds described herein, can be tested on subclones of RKO (RKOp27) human colon adenocarcinoma cells (Schmidt et al., Oncogene 19, 2423-2429; 2000) using the Alamar Blue cell viability assay (described in O'Brien et al. Eur J Biochem 267, 5421-5426, 2000). The compounds are dissolved as 20 mM solutions in dimethylsulfoxide (DMSO) and subsequently diluted in semi-logarithmic steps. DMSO dilutions are further diluted 1:100 into Dulbecco's modified Eagle's medium (DMEM) containing 10% fetal calf serum to a final concentration twice as much as the final concentration in the test. RKO subclones are seeded into 96 well flat bottom plates at a density of 5000 cells per well in a volume of 50 μl per well. 24 hours after seeding the 50 μl each of the compound dilutions in DMEM medium are added into each well of the 96 Well plate. Each compound dilution is tested as quadruplicates. Wells containing untreated control cells are filled with 50 μl DMEM medium containing 1% DMSO. The cells are then incubated with the substances for 72 hours at 37° C. in a humified atmosphere containing 5% carbon dioxide. To determine the viability of the cells, 10 μl of an Alamar Blue solution (Biosource) are added and the fluorescence is measured at an extinction of 544 nm and an emission of 590 nm. For the calculation of the cell viability the emission value from untreated cells is set as 100% viability and the emission rates of treated cells are set in relation to the values of untreated cells. Viabilities are expressed as % values.
The corresponding IC50 values of the compounds for anti-proliferative/cytotoxic activity are determined from the concentration-effect curves.
Representative IC50 values for anti-proliferation/cytotoxicity determined in the mentioned assay follow from the following table A, in which the numbers of the compounds correspond to the numbers of the examples.

[2] = test system: RKO colon adenocarcinoma cells (RKOp27) arrested by the expression of ectopic p27Kip1; assay: Alamar Blue cell viability assay on RKOp27 cells arrested by p27Kip1 expression induced by Ponasterone A; format: cell-based; conditions: Homo sapiens, 72 hours incubation, 10 μM Ponasterone A, read-out: IC50 RKO p27 induced (arrested)
Description: To determine the cell cycle specific mode of action, subclones of RKO colon adenocarcinoma cells (RKOp27 or RKOp21 as described by Schmidt et al. in Oncogene 19, 2423-2429; 2000) are seeded into 96 well flat bottom plates at a density of 15000 cells per well in a volume of 50 μl per well in DMEM growth medium with 10% FCS containing 10 μM Ponasterone A. 24 hours after seeding the 50 μl each of the compound dilutions in DMEM medium are added into each well of the 96 Well plate. Each compound dilution is tested as quadruplicates. Wells containing untreated control cells are filled with 50 μl DMEM medium containing 1% DMSO. The cells are then incubated with the substances for 72 hours at 37° C. in a humidified atmosphere containing 5% carbon dioxide. To determine the viability of the cells, 10 μl of an Alamar Blue solution (Biosource) are added and the fluorescence was measured at an extinction of 544 nm and an emission of 590 nm. For the calculation of the cell viability the emission value from untreated cells is set as 100% viability and the emission rates of treated cells are set in relation to the values of untreated cells. Viabilities are expressed as % values. Viability is compared of proliferating cells grown in the absence of the inducer Ponasterone A, versus viability of cells arrested by the expression of ectopic p27Kip1 induced by Ponasterone A.

Row | Structure (SMILES) | IC50 [1] | IC50 [2]
1 | CCOc1ccccc1CCC(=O)Nc1sc2c(c1C#N)CCN(C(=O)COC(C)=O)C2 [Example 10, Acetic acid 2-{3-cyano-2-[3-(2-ethoxy-phenyl)-propanoylamino]-4,7-dihydro-5H-thieno[2,3-c]pyridin-6-yl}-2-oxo-ethyl ester] | ≤ 0.3 µM | > 100 µM
2 | COCCC(=O)N1CCc2c(sc(NC(=O)CCc3cccc(OC)c3)c2C#N)C1 [Example 12, N-[3-Cyano-6-(3-methoxy-propanoyl)-4,5,6,7-tetrahydro-thieno[2,3-]pyridin-2-yl]-3-(3-methoxy-phenyl)-propionamide] | 0.3 to 2 µM | > 100 µM
3 | CCOc1ccccc1CCC(=O)Nc1sc2c(c1C#N)CCN(C(=O)CCOC)C2 [Example 13, N-[3-Cyano-6-(3-methoxy-propanoyl)-4,5,6,7-tetrahydro-thieno[2,3-c]pyridin-2-yl]-3-(2-ethoxy-phenyl)-propionamide] | ≤ 0.3 µM | > 100 µM
4 | COc1cccc(CCC(=O)Nc2sc3c(c2C#N)CCN(C(=O)CCc2cccnc2)C3)c1 [Example 14, N-[3-Cyano-6-(3-pyridin-3-yl-propanoyl)-4,5,6,7-tetrahydro-thieno[2,3-c]pyridin-2-yl]-3-(3-methoxy-phenyl)-propionamide] | 0.3 to 2 µM | > 100 µM
5 | COc1cccc(CCC(=O)Nc2sc3c(c2C#N)CCN(C(=O)CCc2ccncc2)C3)c1 [Example 15, N-[3-Cyano-6-(3-pyridin-4-yl-propanoyl)-4,5,6,7-tetrahydro-thieno[2,3-c]pyridin-2-yl]-3-(3-methoxy-phenyl)-propionamide] | 0.3 to 2 µM | > 100 µM
6 | COc1cccc(CCC(=O)Nc2sc3c(c2C#N)CCN(C(=O)CCc2ccccn2)C3)c1 [Example 16, N-[3-Cyano-6-(3-pyridin-2-yl-propanoyl)-4,5,6,7-tetrahydro-thieno[2,3-c]pyridin-2-yl]-3-(3-methoxy-phenyl)-propionamide] | 0.3 to 2 µM | > 100 µM
7 | CCOc1ccccc1CCC(=O)Nc1sc2c(c1C#N)CCN(C(=O)CCc1ccccn1)C2 [Example 17, N-[3-Cyano-6-(3-pyridin-2-yl-propanoyl)-4,5,6,7-tetrahydro-thieno[2,3-c]pyridin-2-yl]-3-(2-ethoxy-phenyl)-propionamide] | ≤ 0.3 µM | ≥ 40 µM
8 | COCC(=O)N1CCc2c(sc(NC(=O)CCc3cccc(OC)c3)c2C#N)C1 [Example 18, N-[3-Cyano-6-(2-methoxy-ethanoyl)-4,5,6,7-tetrahydro-thieno[2,3-c]pyridin-2-yl]-3-(3-methoxy-phenyl)-propionamide] | 0.3 to 2 µM | > 100 µM
9 | CCOc1ccccc1CCC(=O)Nc1sc2c(c1C#N)CCN(C(=O)COC)C2 [Example 19, N-[3-Cyano-6-(2-methoxy-ethanoyl)-4,5,6,7-tetrahydro-thieno[2,3-c]pyridin-2-yl]-3-(2-ethoxy-phenyl)-propionamide] | ≤ 0.3 µM | > 100 µM
10 | COc1cccc(CCC(=O)Nc2sc3c(c2C#N)CCN(C(=O)CCn2ccnc2)C3)c1 [Example 20, N-[3-Cyano-6-(3-imidazol-1-yl-propanoyl)-4,5,6,7-tetrahydro-thieno[2,3-c]pyridin-2-yl]-3-(3-methoxy-phenyl)-propionamide] | 0.3 to 2 µM | ≥ 40 µM
11 | COc1cccc(CCC(=O)Nc2sc3c(c2C#N)CCN(C(=O)CCCO)C3)c1 [Example 21, N-[3-Cyano-6-(4-hydroxy-butanoyl)-4,5,6,7-tetrahydro-thieno[2,3-c]pyridin-2-yl]-3-(3-methoxy-phenyl)-propionamide] | 0.3 to 2 µM | > 100 µM
12 | CCOc1ccccc1CCC(=O)Nc1sc2c(c1C#N)CCN(C(=O)CCc1cccnc1)C2 [Example 22, N-[3-Cyano-6-(3-pyridin-3-yl-propanoyl)-4,5,6,7-tetrahydro-thieno[2,3-c]pyridin-2-yl]-3-(2-ethoxy-phenyl)-propionamide] | ≤ 0.3 µM | > 100 µM
13 | CCCC(=O)N1CCc2c(sc(NC(=O)CCc3cccc(OC)c3)c2C#N)C1 [Example 23, N-(6-Butyryl-3-cyano-4,5,6,7-tetrahydro-thieno[2,3-c]pyridin-2-yl)-3-(3-methoxy-phenyl)-propionamide] | ≤ 0.3 µM | > 100 µM
14 | CCCC(=O)N1CCc2c(sc(NC(=O)CCc3ccccc3OCC)c2C#N)C1 [Example 24, N-(6-Butyryl-3-cyano-4,5,6,7-tetrahydro-thieno[2,3-c]pyridin-2-yl)-3-(2-ethoxy-phenyl)-propionamide] | ≤ 0.3 µM | > 100 µM
15 | CCOc1ccccc1CCC(=O)Nc1sc2c(c1C#N)CCN(C(=O)COCCOC)C2 [Example 25, N-{3-Cyano-6-[2-(2-methoxy-ethoxy)-ethanoyl]-4,5,6,7-tetrahydro-thieno[2,3-c]pyridin-2-yl}-3-(2-ethoxy-phenyl)-propionamide] | ≤ 0.3 µM | > 100 µM
16 | CCOc1ccccc1CCC(=O)Nc1sc2c(c1C#N)CCN(C(=O)Cc1ccccn1)C2 [Example 26, N-[3-Cyano-6-(2-pyridin-2-yl-ethanoyl)-4,5,6,7-tetrahydro-thieno[2,3-c]pyridin-2-yl]-3-(2-ethoxy-phenyl)-propionamide] | ≤ 0.3 µM | ≥ 10 µM
17 | CCOc1ccccc1CCC(=O)Nc1sc2c(c1C#N)CCN(C(=O)Cc1cccnc1)C2 [Example 27, N-[3-Cyano-6-(2-pyridin-3-yl-ethanoyl)-4,5,6,7-tetrahydro-thieno[2,3-c]pyridin-2-yl]-3-(2-ethoxy-phenyl)-propionamide] | ≤ 0.3 µM | ≥ 40 µM
18 | COc1cccc(CCC(=O)Nc2sc3c(c2C#N)CCN(C(=O)CO)C3)c1 [Example 28, N-[3-Cyano-6-(2-hydroxy-ethanoyl)-4,5,6,7-tetrahydro-thieno[2,3-c]pyridin-2-yl]-3-(3-methoxy-phenyl)-propionamide] | 0.3 to 2 µM | > 100 µM
19 | COc1ccc(C)cc1CCC(=O)Nc1sc2c(c1C#N)CCN(C(=O)CCc1cccnc1)C2 [Example 29, N-[3-Cyano-6-(3-pyridin-3-yl-propanoyl)-4,5,6,7-tetrahydro-thieno[2,3-c]pyridin-2-yl]-3-(2-methoxy-5-methyl-phenyl)-propionamide] | 0.3 to 2 µM | > 100 µM
20 | COCCOCC(=O)N1CCc2c(sc(NC(=O)CCc3cccc(OC)c3)c2C#N)C1 [Example 30, N-{3-Cyano-6-[2-(2-methoxy-ethoxy)-ethanoyl]-4,5,6,7-tetrahydro-thieno[2,3-c]pyridin-2-yl}-3-(3-methoxy-phenyl)-propionamide] | 0.3 to 2 µM | > 100 µM
21 | COc1cccc(CCC(=O)Nc2sc3c(c2C#N)CCN(C(=O)Cc2ccccn2)C3)c1 [Example 31, N-[3-Cyano-6-(2-pyridin-2-yl-ethanoyl)-4,5,6,7-tetrahydro-thieno[2,3-c]pyridin-2-yl]-3-(3-methoxy-phenyl)-propionamide] | ≤ 0.3 µM | > 100 µM
22 | COCCC(=O)N1CCc2c(sc(NC(=O)CCc3cc(C)ccc3OC)c2C#N)C1 [Example 32, N-[3-Cyano-6-(3-methoxy-propanoyl)-4,5,6,7-tetrahydro-thieno[2,3-c]pyridin-2-yl]-3-(2-methoxy-5-methyl-phenyl)-propionamide] | 0.3 to 2 µM | > 100 µM
23 | COCC(=O)N1CCc2c(sc(NC(=O)CCc3cc(C)ccc3OC)c2C#N)C1 [Example 33, N-[3-Cyano-6-(2-methoxy-ethanoyl)-4,5,6,7-tetrahydro-thieno[2,3-c]pyridin-2-yl]-3-(2-methoxy-5-methyl-phenyl)-propionamide] | 0.3 to 2 µM | > 100 µM
24 | COc1ccc(C)cc1CCC(=O)Nc1sc2c(c1C#N)CCN(C(=O)CCc1cc(C)ccn1)C2 [Example 34, N-{3-Cyano-6-[3-(4-methyl-pyridin-2-yl)-propanoyl]-4,5,6,7-tetrahydro-thieno[2,3-c]pyridin-2-yl}-3-(2-methoxy-5-methyl-phenyl)-propionamide] | 0.3 to 2 µM | > 100 µM
